The values below are quoted from earlier work in patent US5470884A, “Anti-acne compositions” (Procter & Gamble, priority 1994, dated 1995).

For this series, the system named is skin. Particulars: excessive drying, scaling, swelling, burning, peeling, redness, allergic contact dermatitis, sensitization.

As for `O=C(OOC(=O)c1ccccc1)c1ccccc1` [benzoyl peroxide], the skin irritation entry is listed as “very irritating to the skin”.
